# Assay results taken from patent publication US8785483B2, “Methods for treating COPD” (The Board of Regents of the University of Texas System, priority 2010, dated 2014).
# Assays:
# SAEC = test: IL-13-induced ROS levels (H2DCF-DA fluorescence); type: cell-based, human; settings: fidarestat 10 μM overnight, IL-13 25 ng/ml 1 h
# Description: FIGS. 3A-3B. Inhibition of AR prevents IL-13-induced reactive oxygen species (ROS) production in SAEC. (A) Approximately 5×10^4 cells were seeded on 2-chambered slides and starved in serum-free basal medium without or with fidarestat overnight. The cells were washed with 1×HBSS and incubated with 10 μM H2DCF-DA at 37° C. for 30 min, washed again and treated with IL-13 (25 ng/ml) for 1 h. The cells were washed with cold 1×HBSS twice and mounted using floursave mounting medium with DAPI. Photomicrographs were acquired using a fluorescence microscope (Nikon). A representative image is shown (n=4); Magnification 400×. (B) Approximately 10,000 SAEC were plated per well in a 96-well plate and serum-starved for 24 h without or with fidarestat. […] At the end of the treatment, cells were washed twice with HBSS and fluorescence was determined at 485 nm excitation and 538 nm emission wavelengths. Relative ROS production is expressed as mean fluorescence intensity (MFI) (arbitrary units). […] The cells on the culture slide were mounted using floursave mounting medium with DAPI after which photomicrographs were acquired using a fluorescence microscope (Nikon). Fluorescence was determined using 485 nm excitation and 538 nm emission wavelengths for cells in 96-well plate and relative ROS production is expressed as mean fluorescence intensity (MFI) (arbitrary units).
# IL-13 = test: RWE-induced expression of IL-13 in mouse lung (quantitative RT-PCR); type: in vivo; settings: RWE-sensitized and challenged mice, fidarestat 7 mg/kg body wt/day in drinking water, lungs 16 h after challenge
# Description: FIG. 8. AR inhibition prevents RWE-induced expression of IL-13 in mouse lung. The mice were sensitized and challenged with PBS or RWE, without or with AR inhibitor and 16 h later lungs were harvested and total RNA was isolated (n=4). One microgram of total RNA from each sample was transcribed into first-strand cDNA and quantitative RT-PCR was conducted using IL-13 specific forward and reverse primers. The levels of RNA for the target sequences were determined by melting curve analysis. The values presented here are fold-change over the control. (**p<0.001). RWE, ragweed pollen extract; ARI, aldose reductase inhibitor. […]
# The mice lungs were harvested 16 h after RWE-challenge and total RNA was isolated. From each sample, one microgram of total RNA was transcribed into first-strand cDNA and quantitative RT-PCR was conducted using IL-13 specific forward and reverse primers 5′[…] […] Data were collected and analyzed by ABI 7000 System equipment and software (Applied Biosystems, Foster City, Calif.). […] Values of expression in fold increase (ratio of control) were calculated using the formula for relative expression by the method of Delta Delta CT (ΔΔCT): F=2^−^ΔΔ^C, F=fold change (ratio of control), −ΔΔCT=(CT Target−CTHKG)^Timex−(CT Target-CT HKG)^Time 0. […]
smiles,measurement,setting,value
"NC(=O)[C@@H]1C[C@]2(NC(=O)NC2=O)c2cc(F)ccc2O1 [fidarestat, (2S,4S)-2-aminoformyl-6-fluoro-spiro[chroman-4,4′-imidazolidine]-2′,5′-dione]",prevention of IL-13-induced increase in ROS levels,SAEC,80%
same,RWE-induced increase of IL-13 expression in lung,IL-13,prevented this increase
